Biological target: DAT (Rattus norvegicus, UniProt P23977)
Test: DA uptake inhibition
Type: biochemical
Conditions: Table 5

Sequence of DAT (P23977 whole entry): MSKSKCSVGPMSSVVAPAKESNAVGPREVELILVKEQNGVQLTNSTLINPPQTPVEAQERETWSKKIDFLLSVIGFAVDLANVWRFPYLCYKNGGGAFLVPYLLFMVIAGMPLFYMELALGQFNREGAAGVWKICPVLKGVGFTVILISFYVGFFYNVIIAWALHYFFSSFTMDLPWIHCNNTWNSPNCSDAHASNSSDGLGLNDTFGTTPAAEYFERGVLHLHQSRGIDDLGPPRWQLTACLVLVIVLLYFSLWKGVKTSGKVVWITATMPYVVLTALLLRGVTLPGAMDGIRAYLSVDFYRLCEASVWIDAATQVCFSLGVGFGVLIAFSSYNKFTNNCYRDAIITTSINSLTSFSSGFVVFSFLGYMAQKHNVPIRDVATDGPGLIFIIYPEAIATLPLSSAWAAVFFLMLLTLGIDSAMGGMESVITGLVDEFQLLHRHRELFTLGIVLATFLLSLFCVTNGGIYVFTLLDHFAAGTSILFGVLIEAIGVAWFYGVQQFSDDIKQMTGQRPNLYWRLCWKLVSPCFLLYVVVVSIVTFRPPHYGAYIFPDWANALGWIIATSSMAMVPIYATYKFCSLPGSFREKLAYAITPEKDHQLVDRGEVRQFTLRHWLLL

| Compound | DA Up (%) |
| --- | --- |
| C[C@H]1CO[C@@H](c2ccc(Cl)cc2)CN1 [PAL 899, (2S,5S)-2-(4-Chloro-phenyl)-5-methyl-morpholine] | 90% |
| Cc1ccc([C@H]2CN[C@@H](C)CO2)cc1 [PAL 914, (2S,5S)-5-Methyl-2-p-tolyl-morpholine] | 88% |
